{"source": "patent US20020028805A1", "about": "“Methods of inhibiting uterotrophic effects of estrogenic agents” (American Home Products Corporation, priority 2000, published 2002)", "system": "immature rat uterus", "test": "3-day uterine model: uterine wet weight in immature rats", "conditions": "for Effect on ethinyl estradiol induced uterine wet weight increase (in words): 100 μg in combination with 0.5 μg ethinyl estradiol; for Effect on ethinyl estradiol induced uterine wet weight increase (in words) / Effect on raloxifene induced uterine stimulation (in words): three days; for % increase weight (vs. control) / Mean Wet Weight: 3 days; for Effect on raloxifene induced uterine stimulation (in words): co-administered with raloxifene (10 μg; 1 μmg [sic], ~0.2 mg/kg), 1-100 μg, 0.2 mg/kg; for Agonist effect on uterine wet weight (in words) / Increase in uterine wet weight over control: compound alone; for Agonist effect on uterine wet weight (in words): 10 and 100 μg/rat, three days of treatment, 1-way ANOVA; for Increase in uterine wet weight over control: for TSE-424 the highest increase seen", "key": {"[1]": {"conditions": "Experiment No. 1, 10 μg alone, s.c."}, "[2]": {"conditions": "Experiment No. 1, 100 μg + EE (0.5 μg ethinyl estradiol), s.c."}, "[3]": {"conditions": "Experiment No. 1, 100 μg alone, s.c."}, "[4]": {"conditions": "Experiment No. 2, 1 μg + Raloxifene 10 μg"}, "[5]": {"conditions": "Experiment No. 2, 10 μg + Raloxifene 10 μg"}, "[6]": {"conditions": "Experiment No. 2, 10 μg alone, s.c."}, "[7]": {"conditions": "Experiment No. 2, 50 μg + Raloxifene 10 μg"}, "[8]": {"conditions": "Experiment No. 2, 100 μg + Raloxifene 10 μg"}, "[9]": {"conditions": "Experiment No. 2, 100 μg alone, s.c."}, "[10]": {"conditions": "Experiment No. 4, 10 μg alone, s.c."}, "[11]": {"conditions": "Experiment No. 4, 100 μg alone, s.c."}, "[12]": {"conditions": "Experiment No. 3, 10 μg alone, s.c."}, "[13]": {"conditions": "Experiment No. 3, 100 μg + EE (0.5 μg ethinyl estradiol), s.c."}, "[14]": {"conditions": "Experiment No. 3, 100 μg alone, s.c."}, "[15]": {"conditions": "Experiment No. 4, 1 μg + Raloxifene 10 μg"}, "[16]": {"conditions": "Experiment No. 4, 10 μg + Raloxifene 10 μg"}, "[17]": {"conditions": "Experiment No. 4, 50 μg + Raloxifene 10 μg"}, "[18]": {"conditions": "Experiment No. 4, 100 μg + Raloxifene 10 μg"}}, "note": "Entries after “also recorded” stand apart in the source; their conditions may differ."}
{"smiles": "Cc1c(-c2ccc(O)cc2)n(Cc2ccc(OCCN3CCCCC3)cc2)c2ccc(O)cc12", "note": "[ERA-923, 2-(4-Hydroxy-phenyl)-3-methyl-1-(4-(2-piperidin-1-yl-ethoxy)-benzyl]-1H-indol-5-ol]", "values": [{"measurement": "Effect on ethinyl estradiol induced uterine wet weight increase (in words)", "value": "reduced ethinyl estradiol induced wet weight increases to control values; also recorded: reduced the increased wet weight stimulated by ethinyl estradiol to control"}, {"measurement": "% increase weight (vs. control)", "setting": "[1]", "value": 129.8, "unit": "%"}, {"measurement": "Mean Wet Weight", "setting": "[1]", "value": 39.9, "unit": "mg"}, {"measurement": "% increase weight (vs. control)", "setting": "[2]", "value": 79.1, "unit": "%"}, {"measurement": "Mean Wet Weight", "setting": "[2]", "value": 24.3, "unit": "mg"}, {"measurement": "% increase weight (vs. control)", "setting": "[3]", "value": 89.3, "unit": "%"}, {"measurement": "Mean Wet Weight", "setting": "[3]", "value": 27.5, "unit": "mg"}, {"measurement": "% increase weight (vs. control)", "setting": "[4]", "value": 144.4, "unit": "%"}, {"measurement": "Mean Wet Weight", "setting": "[4]", "value": 38.7, "unit": "mg"}, {"measurement": "% increase weight (vs. control)", "setting": "[5]", "value": 100.8, "unit": "%"}, {"measurement": "Mean Wet Weight", "setting": "[5]", "value": 27.0, "unit": "mg"}, {"measurement": "% increase weight (vs. control)", "setting": "[6]", "value": 93.5, "unit": "%"}, {"measurement": "Mean Wet Weight", "setting": "[6]", "value": 25.1, "unit": "mg"}, {"measurement": "% increase weight (vs. control)", "setting": "[7]", "value": 81.6, "unit": "%"}, {"measurement": "Mean Wet Weight", "setting": "[7]", "value": 21.9, "unit": "mg"}, {"measurement": "% increase weight (vs. control)", "setting": "[8]", "value": 81.6, "unit": "%"}, {"measurement": "Mean Wet Weight", "setting": "[8]", "value": 21.9, "unit": "mg"}, {"measurement": "% increase weight (vs. control)", "setting": "[9]", "value": 75.1, "unit": "%"}, {"measurement": "Mean Wet Weight", "setting": "[9]", "value": 20.1, "unit": "mg"}, {"measurement": "Effect on raloxifene induced uterine stimulation (in words)", "value": "antagonized the uterine stimulation; also recorded: reduced to control values or less at all doses except for 1 μg"}, {"measurement": "Agonist effect on uterine wet weight (in words)", "value": "neither ERA-923 nor TSE-424 statistically increased uterine wet weight; also recorded: neither ERA-923 (Experiment No.1) nor TSE-424 (Experiment No. 3) treatments resulted in a statistical increase in uterine wet weight"}]}
{"smiles": "C#C[C@]1(O)CC[C@H]2[C@@H]3CCc4cc(O)ccc4[C@H]3CC[C@@]21C", "note": "[Ethinyl estradiol, 17α-ethinyl estradiol, reference compound]", "values": [{"measurement": "% increase weight (vs. control)", "setting": "Experiment No. 1, 0.5 μg s.c.", "value": 205.7, "unit": "%"}, {"measurement": "Mean Wet Weight", "setting": "Experiment No. 1, 0.5 μg s.c.", "value": 63.2, "unit": "mg"}, {"measurement": "% increase weight (vs. control)", "setting": "Experiment No. 2, 0.5 μg s.c.", "value": 317.3, "unit": "%"}, {"measurement": "Mean Wet Weight", "setting": "Experiment No. 2, 0.5 μg s.c.", "value": 85.1, "unit": "mg"}, {"measurement": "% increase weight (vs. control)", "setting": "Experiment No. 3, 0.5 μg s.c.", "value": 262.1, "unit": "%"}, {"measurement": "Mean Wet Weight", "setting": "Experiment No. 3, 0.5 μg s.c.", "value": 94.1, "unit": "mg"}, {"measurement": "% increase weight (vs. control)", "setting": "Experiment No. 4, 0.5 μg s.c.", "value": 406.4, "unit": "%"}, {"measurement": "Mean Wet Weight", "setting": "Experiment No. 4, 0.5 μg s.c.", "value": 98.7, "unit": "mg"}]}
{"smiles": "O=C(c1ccc(OCCN2CCCCC2)cc1)c1c(-c2ccc(O)cc2)sc2cc(O)ccc12", "note": "[Raloxifene, raloxifene, reference compound]", "values": [{"measurement": "% increase weight (vs. control)", "setting": "[6]", "value": 172.4, "unit": "%"}, {"measurement": "Mean Wet Weight", "setting": "[6]", "value": 46.2, "unit": "mg"}, {"measurement": "% increase weight (vs. control)", "setting": "[9]", "value": 145.8, "unit": "%"}, {"measurement": "Mean Wet Weight", "setting": "[9]", "value": 39.1, "unit": "mg"}, {"measurement": "% increase weight (vs. control)", "setting": "[10]", "value": 185.2, "unit": "%"}, {"measurement": "Mean Wet Weight", "setting": "[10]", "value": 45.0, "unit": "mg"}, {"measurement": "% increase weight (vs. control)", "setting": "[11]", "value": 175.9, "unit": "%"}, {"measurement": "Mean Wet Weight", "setting": "[11]", "value": 42.7, "unit": "mg"}, {"measurement": "Agonist effect on uterine wet weight (in words)", "value": "statistically increased uterine wet weights at both tested doses"}, {"measurement": "Increase in uterine wet weight over control", "value": "75-85%"}]}
{"smiles": "Cc1c(-c2ccc(O)cc2)n(Cc2ccc(OCCN3CCCCCC3)cc2)c2ccc(O)cc12", "note": "[TSE-424, 1-[4-(2-Azepan-1yl-ethoxy)-benzyl]-2-(4-hydroxy-phenyl)-3-methyl-1H-indol-5-ol]", "values": [{"measurement": "Effect on ethinyl estradiol induced uterine wet weight increase (in words)", "value": "reduced ethinyl estradiol induced wet weight increases to control values; also recorded: less than control values"}, {"measurement": "% increase weight (vs. control)", "setting": "[12]", "value": 92.4, "unit": "%"}, {"measurement": "Mean Wet Weight", "setting": "[12]", "value": 33.2, "unit": "mg"}, {"measurement": "% increase weight (vs. control)", "setting": "[13]", "value": 77.7, "unit": "%"}, {"measurement": "Mean Wet Weight", "setting": "[13]", "value": 27.9, "unit": "mg"}, {"measurement": "% increase weight (vs. control)", "setting": "[14]", "value": 81.9, "unit": "%"}, {"measurement": "Mean Wet Weight", "setting": "[14]", "value": 29.4, "unit": "mg"}, {"measurement": "% increase weight (vs. control)", "setting": "[15]", "value": 170.4, "unit": "%"}, {"measurement": "Mean Wet Weight", "setting": "[15]", "value": 41.4, "unit": "mg"}, {"measurement": "% increase weight (vs. control)", "setting": "[16]", "value": 142, "unit": "%"}, {"measurement": "Mean Wet Weight", "setting": "[16]", "value": 34.5, "unit": "mg"}, {"measurement": "% increase weight (vs. control)", "setting": "[10]", "value": 135.0, "unit": "%"}, {"measurement": "Mean Wet Weight", "setting": "[10]", "value": 32.7, "unit": "mg"}, {"measurement": "% increase weight (vs. control)", "setting": "[17]", "value": 139.3, "unit": "%"}, {"measurement": "Mean Wet Weight", "setting": "[17]", "value": 33.8, "unit": "mg"}, {"measurement": "% increase weight (vs. control)", "setting": "[18]", "value": 136.5, "unit": "%"}, {"measurement": "Mean Wet Weight", "setting": "[18]", "value": 33.2, "unit": "mg"}, {"measurement": "% increase weight (vs. control)", "setting": "[11]", "value": 109.4, "unit": "%"}, {"measurement": "Mean Wet Weight", "setting": "[11]", "value": 26.6, "unit": "mg"}, {"measurement": "Effect on raloxifene induced uterine stimulation (in words)", "value": "antagonized the uterine stimulation; also recorded: reduced the increased wet weight stimulated by raloxifene to the highest increase seen with TSE-424 alone"}, {"measurement": "Agonist effect on uterine wet weight (in words)", "value": "neither ERA-923 nor TSE-424 statistically increased uterine wet weight; also recorded: neither ERA-923 (Experiment No.1) nor TSE-424 (Experiment No. 3) treatments resulted in a statistical increase in uterine wet weight"}, {"measurement": "Increase in uterine wet weight over control", "value": 35, "unit": "%"}]}
